Reference: ChEMBL document CHEMBL4229478, “Synthesis, Characterization, and Biological Evaluation of a Porphyrin-Based Photosensitizer and Its Isomer for Effective Photodynamic Therapy against Breast Cancer” (J Med Chem, 2018)
Activity calls are given as the source filed them. No cut-off for these calls is given here.

Tests used:
MDA-MB-231 [1] = experiment: Induction of ROS generation in human MDA-MB-231 cells incubated with DCF-DA probe for 30 mins prior to ROS scavenger NAC addition 1 hr before 2 J/cm2 light irradiation and measured after 1 hr post irradiation by flow cytometric analysis; format: functional, cell-based
[2] = Drug uptake in tumor of BALB/c mouse xenografted with mouse 4T1 cells at 10 mg/kg, iv measured at 12 hrs post injection by IVIS spectrum imaging; format: ADME, organism-based, Neoplasm; conditions: in vivo
MDA-MB-231 [3] = experiment: Induction of apoptosis in human MDA-MB-231 cells assessed as necrotic cells after 24 hrs upon light irradiation by Annexin-V FITC/propidium iodide staining based flow cytometric analysis (reference value: 4.24%); format: functional
MDA-MB-231 [4] = experiment: Induction of apoptosis in human MDA-MB-231 cells assessed as late apoptotic cells after 24 hrs by Annexin-V FITC/propidium iodide staining based flow cytometric analysis (reference value: 1.28%); format: cell-based; conditions: mda-mb-231, 24 h
MDA-MB-231 [5] = experiment: Induction of apoptosis in human MDA-MB-231 cells assessed as necrotic cells after 24 hrs by Annexin-V FITC/propidium iodide staining based flow cytometric analysis (reference value: 4.24%); format: cell-based; conditions: mda-mb-231, 24 h
[6] = Dark toxicity against human MCF7 cells assessed as cell viability at 5 uM after 24 hrs by MTT assay; format: cell-based; conditions: mcf7, 24 h
[7] = Selectivity index, ratio of dark toxicity against human MCF7 at 5 uM cells to phototoxicity against human MCF7 cells at 5 uM; format: cell-based; conditions: read-out: Selectivity Index
[8] = Selectivity index, ratio of dark toxicity against mouse 4T1 cells at 5 uM to phototoxicity against mouse 4T1 cells at 5 uM; format: cell-based; conditions: read-out: Selectivity Index
MDA-MB-231 [9] = experiment: Induction of apoptosis in human MDA-MB-231 cells assessed as late apoptotic cells after 24 hrs upon light irradiation by Annexin-V FITC/propidium iodide staining based flow cytometric analysis (reference value: 1.28%); format: functional
[10] = Drug uptake in human MDA-MB-231 cells at 5 to 10 uM after 4 hrs by fluorescence microscopic analysis; format: ADME, cell-based; conditions: mda-mb-231, 4 h
4T1 [11] = experiment: Antitumor activity against mouse 4T1 cells xenografted in BALB/c mouse assessed as tumor growth inhibition at 4 mg/kg, iv pretreated for 24 hrs followed by 50 J/cm2 light irradiation and measured at day 22 post last dose; format: functional, organism-based
Mus musculus [12] = experiment: Toxicity in BALB/c mouse xenografted with mouse 4T1 cells assessed as pathological changes in lung at 4 mg/kg, iv pre-tretaed for 24 hrs followed by 50 J/cm2 light irradiation and measured at day 22 post dose by hematoxylin and eosin staining based light microscopic analysis; format: organism-based; conditions: in vivo
[13] = Induction of apoptosis in human MDA-MB-231 cells assessed as viable cells after 24 hrs by Annexin-V FITC/propidium iodide staining based flow cytometric analysis (reference value: 93.27%); format: cell-based; conditions: read-out: Activity
[14] = Drug uptake in human MDA-MB-231 cells up to 10 uM after 4 hrs by flow cytometric analysis; format: ADME, cell-based; conditions: mda-mb-231, 4 h
[15] = Dark toxicity against mouse 4T1 cells assessed as cell viability at 5 uM after 24 hrs by MTT assay; format: cell-based; conditions: 4t1, 24 h
[16] = Dark toxicity against human MDA-MB-231 cells assessed as cell viability at 5 uM after 24 hrs by MTT assay; format: cell-based; conditions: mda-mb-231, 24 h
MDA-MB-231 [17] = experiment: Induction of apoptosis in human MDA-MB-231 cells assessed as early apoptotic cells after 24 hrs upon light irradiation by Annexin-V FITC/propidium iodide staining based flow cytometric analysis (reference value: 1.22%); format: functional
MDA-MB-231 [18] = experiment: Induction of ROS generation in human MDA-MB-231 cells incubated with DCF-DA probe for 30 mins followed by 2 J/cm2 light irradiation and measured after 1 hr by flow cytometric analysis (reference value: 4.38%); format: functional
Mus musculus [19] = experiment: Toxicity in BALB/c mouse xenografted with mouse 4T1 cells assessed as effect on body weight at 4 mg/kg, iv pre-tretaed for 24 hrs followed by 50 J/cm2 light irradiation and measured at day 22 post dose; format: organism-based; conditions: in vivo
[20] = Drug uptake in mitochondria of human MDA-MB-231 cells after 4 hrs by Mito tracker green-based confocal laser scanning microscopic analysis; format: ADME; conditions: mda-mb-231, 4 h
[21] = Drug uptake in heart of BALB/c mouse xenografted with mouse 4T1 cells at 10 mg/kg, iv measured at 12 hrs post injection by IVIS spectrum imaging; format: ADME, organism-based; conditions: in vivo
Mus musculus [22] = experiment: Nephrotoxicity in BALB/c mouse xenografted with mouse 4T1 cells assessed as pathological changes in kidney at 4 mg/kg, iv pre-tretaed for 24 hrs followed by 50 J/cm2 light irradiation and measured at day 22 post dose by hematoxylin and eosin staining based light microscopic analysis; format: toxicity, organism-based; conditions: in vivo
[23] = Tmax in tumor of BALB/c mouse xenografted with mouse 4T1 cells at 10 mg/kg, iv measured after […] by fluorescence assay; format: ADME, organism-based, Neoplasm
[24] = Drug uptake in tumor of BALB/c mouse xenografted with mouse 4T1 cells at 10 mg/kg, iv measured up to 3 to 24 hrs post injection by fluorescence assay; format: ADME, organism-based, Neoplasm; conditions: in vivo
Mus musculus [25] = experiment: Toxicity in BALB/c mouse xenografted with mouse 4T1 cells assessed as pathological changes in spleen at 4 mg/kg, iv pre-tretaed for 24 hrs followed by 50 J/cm2 light irradiation and measured at day 22 post dose by hematoxylin and eosin staining based light microscopic analysis; format: organism-based; conditions: in vivo
[26] = Drug uptake in lung of BALB/c mouse xenografted with mouse 4T1 cells at 10 mg/kg, iv measured at 12 hrs post injection by IVIS spectrum imaging; format: ADME, organism-based; conditions: in vivo
Mus musculus [27] = experiment: Toxicity in BALB/c mouse xenografted with mouse 4T1 cells assessed as effect on body weight at 4 mg/kg, iv measured at day 22 post last dose; format: organism-based; conditions: in vivo
[28] = Drug uptake in kidney of BALB/c mouse xenografted with mouse 4T1 cells at 10 mg/kg, iv measured at 12 hrs post injection by IVIS spectrum imaging; format: ADME, organism-based; conditions: in vivo
MDA-MB-231 [29] = experiment: Induction of ROS generation in human MDA-MB-231 cells incubated with DCF-DA probe for 30 mins by flow cytometric analysis (reference value: 4.38%); format: cell-based; conditions: mda-mb-231, 0.5 h
4T1 [30] = experiment: Induction of apoptosis in mouse 4T1 cells xenografted in BALB/c mouse at 4 mg/kg, iv pretreated for 24 hrs followed by 50 J/cm2 light irradiation by TUNEL assay; format: functional, organism-based
[31] = Drug uptake in spleen of BALB/c mouse xenografted with mouse 4T1 cells at 10 mg/kg, iv measured at 12 hrs post injection by IVIS spectrum imaging; format: ADME, organism-based; conditions: in vivo
MDA-MB-231 [32] = experiment: Phototoxicity against human MDA-MB-231 cells assessed as cell viability at 5 uM preincubated for 4 hrs followed by 0.5 to 2 J/cm2 light irradiation and measured after 24 hrs by MTT assay; format: functional, cell-based
MCF7 = experiment: Phototoxicity against human MCF7 cells assessed as cell viability at 5 uM preincubated for 4 hrs followed by 0.5 to 2 J/cm2 light irradiation and measured after 24 hrs by MTT assay; format: functional, cell-based
MDA-MB-231 [33] = experiment: Induction of apoptosis in human MDA-MB-231 cells assessed as early apoptotic cells after 24 hrs by Annexin-V FITC/propidium iodide staining based flow cytometric analysis (reference value: 1.22%); format: cell-based; conditions: mda-mb-231, 24 h
MDA-MB-231 [34] = experiment: Induction of apoptosis in human MDA-MB-231 cells assessed as viable cells after 24 hrs upon light irradiation by Annexin-V FITC/propidium iodide staining based flow cytometric analysis (reference value: 93.27%); format: functional
[35] = Induction of singlet oxygen generation in cell free condition upon 635 nm semiconductor laser light irradiation by singlet oxygen sensor green dye based fluorescence spectrophotometeric analysis; format: functional
4T1 [36] = experiment: Phototoxicity against mouse 4T1 cells assessed as cell viability at 5 uM preincubated for 4 hrs followed by 0.5 to 2 J/cm2 light irradiation and measured after 24 hrs by MTT assay; format: functional, cell-based
[37] = Selectivity index, ratio of dark toxicity against human MDA-MB-231 cells at 5 uM to phototoxicity against human MDA-MB-231 cells at 5 uM; format: cell-based; conditions: read-out: Selectivity Index
Mus musculus [38] = experiment: Hepatotoxicity in BALB/c mouse xenografted with mouse 4T1 cells assessed as pathological changes in liver at 4 mg/kg, iv pre-tretaed for 24 hrs followed by 50 J/cm2 light irradiation and measured at day 22 post dose by hematoxylin and eosin staining based light microscopic analysis; format: toxicity, organism-based; conditions: in vivo

Drug uptake [2]: Active
Drug uptake [10]: Not Active
Drug uptake [14]: Not Active
Drug uptake [20]: Active
Drug uptake [21]: Not Active
Tmax [23]: 12 h
Drug uptake [24]: Active
Drug uptake [26]: Not Active
Drug uptake [28]: Not Active
Activity (MDA-MB-231 [29]): 5.7%
Drug uptake [31]: Not Active
SMILES: COC(C)C1=C(C)c2cc3[nH]c(cc4nc(cc5[nH]c(cc1n2)c(C)c5CCC(=O)O)C(CCC(=O)O)=C4C)c(C)c3C(C)O (centres undefined)
Activity (MDA-MB-231 [1]): inactive
Activity (MDA-MB-231 [3]): 6.83%
Activity (MDA-MB-231 [4]): 1.76%
Activity (MDA-MB-231 [5]): 4.02%
Activity [6]: Non-Toxic
selectivity ratio at 5 µM [7]: 16.8
selectivity ratio at 5 µM [8]: 12
Activity (MDA-MB-231 [9]): 30.5%
TGI (4T1 [11]): inactive
Activity (Mus musculus [12]): Non-Toxic
viability at 24 h [13]: 92.2%
Activity [15]: Non-Toxic
Activity [16]: Non-Toxic
Activity (MDA-MB-231 [17]): 3.91%
Activity (MDA-MB-231 [18]): 25.13%
Activity (Mus musculus [19]): Non-Toxic
Activity (Mus musculus [22]): Non-Toxic
Activity (Mus musculus [25]): Non-Toxic
Activity (Mus musculus [27]): Non-Toxic
Activity (4T1 [30]): Active
Activity (MDA-MB-231 [32]): Active
Activity (MCF7): Active
Activity (MDA-MB-231 [33]): 1.99%
Activity (MDA-MB-231 [34]): 58.77%
Activity [35]: Dose-dependent effect
Activity (4T1 [36]): Active
selectivity ratio at 5 µM [37]: 18.8
Activity (Mus musculus [38]): Non-Toxic
